Results: US9486466B2, “Veliparib in combination with carboplatin for the treatment of triple negative breast cancer” (AbbVie Inc., priority 2013, dated 2016)

System: early-stage triple negative breast cancer
Assay: Phase 2 randomized open label study of veliparib and carboplatin with standard neoadjuvant chemotherapy; pathologic complete response
Format: in vivo, human
From the text: Pathological Complete Response (pCR) is the absence of any residual invasive cancer on hematoxylin and eosin evaluation of the resected breast specimen and any resected lymph node tissue following completion of neoadjuvant systemic therapy.
This example is a Phase 2, interventional, randomized, open label study evaluating the safety and efficacy of veliparib and carboplatin administered concurrently with standard chemotherapy in subjects with early-stage triple negative breast cancer.
Patients received 50 mg po bid during the 12 weekly treatment cycles post-randomization and carboplatin: AUC 6 IV every three weeks for […] during the 12 weekly treatment cycles post-randomization with standard chemotherapy or alternatively standard chemotherapy alone. Standard chemotherapy was paclitaxel: 80 mg/m^2 IV during the 12 weekly treatment cycles post randomization; doxorubicin: 60 mg/m^2 IV after completion of the 12 weekly treatment cycles and prior to surgery for weeks 13-16; cyclophosphamide: 600 mg/m^2 IV after completion of the 12 weekly treatment cycles and prior to surgery for weeks 13-16.
Determine whether adding veliparib and carboplatin to standard neoadjuvant medications increases the probability of pathologic complete response (pCR) over standard neoadjuvant chemotherapy for triple negative breast cancer. […]

**Q.** For `C[C@]1(c2nc3c(C(N)=O)cccc3[nH]2)CCCN1` [Veliparib arm, 2-[(2R)-2-methylpyrrolidin-2-yl]-1H-benzimidazole-4-carboxamide], which pCR % (patients with triple negative breast cancer, neoadjuvant therapy followed by surgery, veliparib arm: veliparib 50 mg po bid + carboplatin AUC 6 IV during the 12 weekly cycles, added to standard chemotherapy (paclitaxel, then doxorubicin/cyclophosphamide), control arm: standard chemotherapy alone) is on record?
**A.** 56% (n = 39)

**Q.** What about the “effect on number of women achieving pCR status” value (veliparib and carboplatin added to standard of care, neoadjuvant setting, early triple negative breast cancer) of the same molecule?
**A.** increases the number of women that achieve pCR status
